Results published in patent US20250120975A1, “INTEGRIN INHIBITORS FOR TREATMENT OF PRIMARY SCLEROSING CHOLANGITIS” (Pliant Therapeutics, Inc., priority 2023, published 2025).

What was measured:
[1] = tested on: BALB/c.Mdr2−/− mouse model of biliary fibrosis; assay: Liver and kidney biochemistries in serum (ALT, ALP, total bilirubin); type: in vivo; details: 6 weeks
Text: (§1) The tissue source is BALBc.Mdr2-/−male mice that were 6 weeks old. The Mdr2(abcb4)−/− mouse model of sclerosing cholangitis has been previously described and is a model of spontaneously progressive hepatic fibrosis in mice with deletion of the biliary phospholipid flippase on fibrosis-susceptible background (Mdr2(abcb4)^−/−. BALB/c mouse). See N. Ikenaga, et al. (2015) Am J Pathol. 185 (2): 325-334, the entire contents of which are hereby incorporated by reference in their entirety.
(§2) (S)-4-((2-methoxyethyl)(4-(5,6,7,8-tetrahydro-1,8-naphthyridin-2-yl)butyl)amino)-2-(quinazolin-4-ylamino)butanoic acid (or PBS) was dosed once daily orally at 100 mg/kg, 300 mg/kg or 1000 mg/kg (see Table B-2) starting at 6 weeks after birth of the subject and continuing for 6 weeks. All animals were euthanized and necropsied at the end of week 12.
Determination of ALT, ALP, and total bilirubin was performed as conventional liver and kidney function tests at the clinical biochemistry core (BIDMC).

[2] = tested on: BALB/c.Mdr2−/− mouse model of biliary fibrosis; assay: Relative and total liver collagen (hydroxyproline); type: in vivo; details: 6 weeks
Text: as §1, §2
Liver collagen was determined biochemically as hydroxyproline (OHP). See N. Ikenaga, et al. (2015) Am J Pathol. 185 (2): 325-334, the entire contents of which are hereby incorporated by reference in their entirety. Two fresh liver pieces from the left and right liver lobe (120-160 mg each) were hydrolyzed in 2 mL 6N HCl at a temperature of 110° C. for 16 h. Moreover, 20 μL of hydrolysate was evaporated under N2 and OHP was quantified using the chloramine-T/dimethylamino-benzaldehyde method. OHP levels were used to calculate relative (per 100 mg of wet liver) and total (obtained by multiplying liver weights with relative hepatic OHP) hepatic collagen content.

[3] = tested on: subjects with PSC and suspected liver fibrosis; assay: Phase 2a INTEGRIS-PSC: liver biochemistry (ALP, ALT, AST, bilirubin); type: in vivo, human
Method: Fasting blood and urine specimens for safety laboratory assessments were or will be obtained at the time points specified in the Schedule of Events (see Table B-4, Table B-5, and Table B-6). Specimens are obtained after at least an 8-hour fast. Subjects are in a seated or supine position during blood collection. Creatinine clearance is calculated using the Cockcroft-Gault equation.
(§3) Absolute and relative changes from Baseline in liver fibrosis biomarkers (including PRO-C3 and ELF) and in ALP are presented in numerical and graphical forms by treatment and dose utilizing data from the timepoints specified in the Schedule of Events. Changes from Baseline to Week 12(Parts 1 and 2) and Week 24 (Part 3) in magnetic resonance (MR)-based liver imaging are also evaluated, as well as changes in PROs.

[4] = tested on: subjects with PSC and suspected liver fibrosis; assay: Phase 2a INTEGRIS-PSC: gadoxetate contrast MRI of the liver; type: in vivo, human; details: for MRI relative enhancement (gadoxetate) / time to arrival to the common bile duct (gadoxetate): Example B-5
Method: Imaging of the whole liver was performed by MRI prior to Baseline and at Week 12 (Parts 1 and 2) and will be performed at Baseline, at Week 12, and at Week 24 (Part 3 only), and will be read centrally utilizing dynamic liver imaging in combination with the contrast agent Gadoxetate disodium and a 4-hour fast (no food or drink, except water). Any clinically significant incidental findings are evaluated as potential AEs.
as §3

[5] = 1000 mg/kg, relative to the vehicle control
[6] = all doses, Week 12, MRI sub-study, Example B-4

Question: What does the source list for `COCCN(CCCCc1ccc2c(n1)NCCC2)CC[C@H](Nc1ncnc2ccccc12)C(=O)O` [Bexotegrast, (S)-4-((2-methoxyethyl)(4-(5,6,7,8-tetrahydro-1,8-naphthyridin-2-yl)butyl)amino)-2-(quinazolin-4-ylamino)butanoic acid]?
Answer: serum alkaline phosphatase levels ([1]; 1000 mg/kg, vs vehicle): significantly decreased; serum ALT levels ([1]; 100, 300, 1000 mg/kg): did not change; serum total bilirubin levels ([1]; 100, 300, 1000 mg/kg): dose dependent trend down; reduction in total hepatic collagen ([2]; 1000 mg/kg PO/QD): approximately 75%; relative hepatic collagen content (normalized to liver weight) [2, 5]: decreased; total hepatic collagen content [2, 5]: decreased; ALP, all participants ([3]; 320 mg, over 24 weeks, compared to increased levels on placebo, Example B-5): statistically significant reduction; ALP, patients with elevated baseline ALP values ([3]; 320 mg, over 24 weeks, Example B-5): greater reductions; ALP relative to placebo ([3]; 40, 80, 160 mg, Week 12, Example B-3): dose-dependent trend for reduction in ALP; liver chemistry levels (ALT, AST, total and direct bilirubin) ([3]; all doses versus increases in placebo, Week 12, Example B-3): stabilization of liver chemistry levels; ALP relative to the placebo ([3]; subgroup with elevated ALP (>ULN) at Baseline, Week 12, Example B-4): stabilized; MRI relative enhancement (gadoxetate) ([4]; 320 mg, Week 12, MRI sub-study): increased relative enhancement; time to arrival to the common bile duct (gadoxetate) ([4]; 320 mg, Week 12, MRI sub-study): decreased time to arrival; MRI imaging: hepatocyte function and bile flow relative to placebo ([4]; 320 mg, Week 12, Example B-4): evidence of improved hepatocyte function and bile flow; MRI relative enhancement (gadoxetate) ([4]; 320 mg, Week 24, MRI sub-study): further increase in relative enhancement; time to arrival to the common bile duct (gadoxetate) ([4]; 320 mg, Week 24, MRI sub-study): faster time to arrival; change in Gadoxetate time of arrival in bile duct ([4]; all doses compared to placebo, Week 12, Example B-3): shorter; MRI relative enhancement in whole liver (gadoxetate) ([4]; all doses, Baseline to Week 12, compared to a reduction in placebo, Example B-3): improvement in relative enhancement; Gadoxetate relative enhancement (RE) compared to the placebo [4, 6]: increase; Gadoxetate time of arrival to the common bile duct compared to the placebo [4, 6]: reduced
